Like-named read-outs stand apart in the source and are kept apart here.
Columns and labels:
[1] = the molecule shown is the open-chain precursor, amide bond, 16-membered ring, 3 steps
[2] = system: 10326 NUT midline carcinoma cell line; test: 10326 cell viability (ATPLite); format: cell-based; settings: Table P2; 48 hours incubation
Method: (§1) Addition of compound was performed with a JANUS Workstation (PerkinElmer Life and Analytical Sciences) using a 384-well pinhead tool that is calibrated to deliver 100 nL drug/well. After 48 hours of incubation with compound, cells were analyzed for cell viability using the ATPLite (Perkin Elmer) luminescent assay kit per the manufacturer's instructions. […] Replicate measurements were analyzed with respect to dose and estimates of IC50 were calculated by logistic regression (GraphPad Prism).

HDAC8 = target: T1, HDAC8 (Homo sapiens, UniProt Q9BY41); test: HDAC biochemical assay of P5-P12 (Table P1); design: The recombinant, full-length HDAC protein (BPS Biosciences) was incubated; purchased BPS Biosciences; settings: Table P1
T1 sequence (Q9BY41 1-377): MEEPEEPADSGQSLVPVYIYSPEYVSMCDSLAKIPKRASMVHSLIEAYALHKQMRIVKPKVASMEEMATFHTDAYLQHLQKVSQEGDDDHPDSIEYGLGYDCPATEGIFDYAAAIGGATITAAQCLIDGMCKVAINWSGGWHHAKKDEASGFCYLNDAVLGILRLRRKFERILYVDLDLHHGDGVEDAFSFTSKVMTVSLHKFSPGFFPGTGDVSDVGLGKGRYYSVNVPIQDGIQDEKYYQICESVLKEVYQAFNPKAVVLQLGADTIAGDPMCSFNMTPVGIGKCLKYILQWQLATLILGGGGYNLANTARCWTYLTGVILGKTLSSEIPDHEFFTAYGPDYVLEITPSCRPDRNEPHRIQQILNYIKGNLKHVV

[3] = system: 797 NUT midline carcinoma cell line; test: 797 cell viability (ATPLite); format: cell-based; settings: Table P2; 48 hours incubation
Method: as §1

HDAC3 = target: T2, HDAC3 (Homo sapiens, UniProt O15379); test: HDAC biochemical assay of P5-P12 (Table P1); settings: Table P1
T2 construct: The recombinant, full-length HDAC protein (BPS Biosciences) was incubated; purchased BPS Biosciences

HDAC6 = target: T3, HDAC6 (Homo sapiens, UniProt Q9UBN7); test: HDAC biochemical assay of P5-P12 (Table P1); design: The recombinant, full-length HDAC protein (BPS Biosciences) was incubated; purchased BPS Biosciences; settings: 200 μM TCEP
T3 sequence (Q9UBN7 1-1215): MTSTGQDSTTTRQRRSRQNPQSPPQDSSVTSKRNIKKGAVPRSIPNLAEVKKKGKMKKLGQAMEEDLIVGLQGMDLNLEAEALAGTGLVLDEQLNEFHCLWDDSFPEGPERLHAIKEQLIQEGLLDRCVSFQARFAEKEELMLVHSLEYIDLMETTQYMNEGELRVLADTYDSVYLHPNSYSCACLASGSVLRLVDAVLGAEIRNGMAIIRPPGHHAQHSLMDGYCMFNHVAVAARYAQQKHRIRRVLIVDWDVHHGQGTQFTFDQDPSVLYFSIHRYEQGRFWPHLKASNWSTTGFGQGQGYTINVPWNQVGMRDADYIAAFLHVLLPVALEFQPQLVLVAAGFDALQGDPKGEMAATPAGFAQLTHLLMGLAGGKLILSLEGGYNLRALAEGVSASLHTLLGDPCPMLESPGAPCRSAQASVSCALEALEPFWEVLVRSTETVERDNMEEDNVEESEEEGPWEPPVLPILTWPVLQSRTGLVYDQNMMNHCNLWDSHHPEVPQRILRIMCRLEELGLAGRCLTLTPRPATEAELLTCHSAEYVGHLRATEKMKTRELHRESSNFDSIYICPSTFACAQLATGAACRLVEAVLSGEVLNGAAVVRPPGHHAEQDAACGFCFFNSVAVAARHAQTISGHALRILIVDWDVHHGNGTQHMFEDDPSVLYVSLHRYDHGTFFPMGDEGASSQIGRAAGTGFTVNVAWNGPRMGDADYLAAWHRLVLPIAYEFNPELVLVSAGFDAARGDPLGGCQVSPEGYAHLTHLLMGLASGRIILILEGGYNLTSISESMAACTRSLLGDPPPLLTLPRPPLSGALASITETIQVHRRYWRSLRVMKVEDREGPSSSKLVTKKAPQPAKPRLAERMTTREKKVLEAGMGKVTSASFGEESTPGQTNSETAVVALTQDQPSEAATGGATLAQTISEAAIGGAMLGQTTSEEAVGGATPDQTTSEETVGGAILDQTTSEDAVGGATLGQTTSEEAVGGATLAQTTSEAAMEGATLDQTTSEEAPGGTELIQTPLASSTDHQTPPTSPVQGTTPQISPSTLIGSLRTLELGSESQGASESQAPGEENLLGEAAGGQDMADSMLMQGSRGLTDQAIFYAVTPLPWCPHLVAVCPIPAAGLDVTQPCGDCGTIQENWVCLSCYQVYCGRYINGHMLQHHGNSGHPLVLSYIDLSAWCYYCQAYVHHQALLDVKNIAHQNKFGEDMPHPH

HDACs 1-3 = test: HDAC biochemical assay of P5-P12, summary statements
CNS cancer cell lines [4] = test: cells; settings: read-out: Average Concentration (M), LC50, CNS
Excerpt: (§2) All compounds submitted for screening were initially tested at a single high dose (10^-5 M) against the fill NCI 60 cell panel. Only compounds which satisfied pre-determined threshold inhibition criteria in a minimum number of cell lines progressed to a second round of testing utilizing a more comprehensive 5-dose inhibition assay. The threshold inhibition criteria for progression to the 5-dose assays were selected to efficiently capture compounds with anti-proliferative activity based on historical DTP screening data.
(§3) Concentrations for G150, IC50, TGI, and LC50 were calculated for all cell lines tested, and heat plots were prepared.

colon cancer cell lines [5] = settings: for Percent of Cell Lines Impacted (%), LC50, Colon: five-dose
Excerpt: as §2, §3

NCI-60 cancer cell lines [6] = test: cells
Excerpt: as §2, §3

melanoma cell lines [7] = test: cells; settings: read-out: Average Concentration (M), LC50, Melanoma
CNS cancer cell lines [8] = settings: for Percent of Cell Lines Impacted (%), LC50, CNS: five-dose
Excerpt: as §2, §3

melanoma cell lines [9] = settings: for Percent of Cell Lines Impacted (%), LC50, Melanoma: five-dose
NCI-60 cancer cell lines [10] = settings: five-dose; for Percent of Cell Lines Impacted (%), GI50: 50% Growth Inhibition; for Percent of Cell Lines Impacted (%), LC50: 50% Lethal Concentration reached; for Percent of Cell Lines Impacted (%), TGI / Total Impacted Cell Lines (n), TGI: Total Growth Inhibition; for Average Concentration (M), TGI: average over impacted cell lines
Excerpt: as §2, §3

colon cancer cell lines [11] = test: cells; settings: read-out: Average Concentration (M), LC50, Colon
Excerpt: as §2, §3

renal cancer cell lines = settings: for Percent of Cell Lines Impacted (%), LC50, Renal: five-dose
Excerpt: as §2, §3

HDAC2 = HDAC2 (Homo sapiens, UniProt Q92769); test: HDAC biochemical assay of P5-P12 (Table P1); design: The recombinant, full-length HDAC protein (BPS Biosciences) was incubated; purchased BPS Biosciences; settings: Table P1
HDAC1 = HDAC1 (Homo sapiens, UniProt Q13547); test: HDAC biochemical assay of P5-P12 (Table P1); design: The recombinant, full-length HDAC protein (BPS Biosciences) was incubated; purchased BPS Biosciences; settings: Table P1
[12] = system: ovarian cancer cell lines
Excerpt: as §2, §3

human HDACs = test: HDAC biochemical assay (Example 16), summary statements over isoforms; settings: all isoforms tested
Method: The inhibitory effect of compounds on deacetylase isoenzyme function was determined in vitro using an optimized homogenous assay performed in 384-well plate format. […] Data are analyzed on a plate-by-plate basis for the linear range of fluorescence over time. Data from the plate capture corresponding to the mid-linear range is imported into analytical software and annotated with well identity and compound concentration (Spotfire DecisionSite). Replicate experimental data from incubations with inhibitor are normalized to control, solvent-only wells and IC-50 is determined by logistic regression.
Thus, small-molecule inhibitors were arrayed at twelve-point dose-response (3-fold increments) in 384-well library plates and transferred by robotic pin device to replicate assay plates containing assay buffer under reducing conditions (TCEP 200 μM). A liquid handling device then transferred a tripeptide substrate terminating in acetyl-lysine and amide conjugated to 4-methyl-7-aminocoumarin (AMC), recombinant human histone deacetylase (BPS Bioscience, San Diego, Calif.), and recombinant human trypsin (Sigma-Aldrich, St. Louis, Mo.). […] Kinetic (fluorescence per unit time) and end-point (total fluorescence) data were captured by a multilabel plate reader. Replicate data were analyzed by curve-fit using logistic regression (Spotfire Decision-Site). […]

[13] = read-out: Average Concentration (M), GI50

T2 sequence (O15379 whole entry): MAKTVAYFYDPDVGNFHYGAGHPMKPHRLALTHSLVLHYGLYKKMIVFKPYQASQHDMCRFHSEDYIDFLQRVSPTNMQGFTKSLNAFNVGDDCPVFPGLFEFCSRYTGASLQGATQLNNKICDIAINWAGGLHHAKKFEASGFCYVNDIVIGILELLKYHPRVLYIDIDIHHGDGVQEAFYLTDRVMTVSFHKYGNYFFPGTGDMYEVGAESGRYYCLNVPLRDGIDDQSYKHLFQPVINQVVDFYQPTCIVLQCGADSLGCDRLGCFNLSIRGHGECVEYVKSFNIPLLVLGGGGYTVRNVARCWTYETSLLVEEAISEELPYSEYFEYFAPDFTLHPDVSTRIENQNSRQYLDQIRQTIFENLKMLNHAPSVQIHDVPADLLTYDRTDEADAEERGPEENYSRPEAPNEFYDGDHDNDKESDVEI
T2 sequence (Q9Y618 395-489 partner limits assumed): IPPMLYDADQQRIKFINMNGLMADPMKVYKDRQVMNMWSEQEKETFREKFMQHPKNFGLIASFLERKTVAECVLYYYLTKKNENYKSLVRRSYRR
Chain of HDAC1 (Q13547 whole entry): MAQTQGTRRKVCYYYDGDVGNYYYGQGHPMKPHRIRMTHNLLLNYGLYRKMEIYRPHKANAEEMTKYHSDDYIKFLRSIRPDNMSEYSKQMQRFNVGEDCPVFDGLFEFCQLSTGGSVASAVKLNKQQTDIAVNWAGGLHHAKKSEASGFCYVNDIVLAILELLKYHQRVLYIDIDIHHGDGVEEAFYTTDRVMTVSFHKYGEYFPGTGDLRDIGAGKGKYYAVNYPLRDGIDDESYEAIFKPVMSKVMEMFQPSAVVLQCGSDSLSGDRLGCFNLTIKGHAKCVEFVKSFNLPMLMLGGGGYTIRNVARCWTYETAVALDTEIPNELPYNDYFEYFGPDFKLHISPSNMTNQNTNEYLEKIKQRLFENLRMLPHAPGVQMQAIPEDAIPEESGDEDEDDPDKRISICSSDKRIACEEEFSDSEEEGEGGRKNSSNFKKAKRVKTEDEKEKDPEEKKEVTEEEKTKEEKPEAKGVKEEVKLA
Chain of HDAC2 (Q92769 whole entry): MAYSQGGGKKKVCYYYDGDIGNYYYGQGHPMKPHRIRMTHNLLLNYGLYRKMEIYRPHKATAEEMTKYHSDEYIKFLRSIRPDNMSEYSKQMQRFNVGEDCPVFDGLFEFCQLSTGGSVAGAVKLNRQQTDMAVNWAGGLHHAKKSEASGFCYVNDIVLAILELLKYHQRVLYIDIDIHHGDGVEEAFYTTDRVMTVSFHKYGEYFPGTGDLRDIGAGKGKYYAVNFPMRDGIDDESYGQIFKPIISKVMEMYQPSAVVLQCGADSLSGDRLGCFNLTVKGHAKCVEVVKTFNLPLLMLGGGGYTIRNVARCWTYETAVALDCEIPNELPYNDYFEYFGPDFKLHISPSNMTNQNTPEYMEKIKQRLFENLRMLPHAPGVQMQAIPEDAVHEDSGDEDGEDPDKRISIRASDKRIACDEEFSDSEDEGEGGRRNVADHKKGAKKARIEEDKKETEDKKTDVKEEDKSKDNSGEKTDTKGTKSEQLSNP

COC(=O)C[C@@H](/C=C/CCSC(c1ccccc1)(c1ccccc1)c1ccccc1)NC(=O)[C@@H](NC(=O)[C@]1(C)CSC(c2ccnc(CNC(=O)OC(C)(C)C)c2)=N1)C(C)C [Trityl Protected Peptide Isostere Pyridyl “OUT” Macrocycle]
ring closure, isolated yield ([1]; HATU/HOBt/DIEA, MeCN, 0.97 mM, […]): 32%

CC(C)[C@@H]1NC(=O)[C@]2(C)CSC(=N2)c2csc(n2)CNC(=O)C[C@@H](/C=C/CCS)NC1=O [Largazole peptide isostere thiol]
IC50 [2]: 11900 nM
IC50 (HDAC8): 255 nM
IC50 [3]: 1740 nM

CC(C)[C@@H]1NC(=O)[C@]2(C)CSC(=N2)c2cccc(n2)CNC(=O)C[C@@H](/C=C/CCS)OC1=O [Compound P6, Depsipeptide Pyridyl “IN” Thiol]
IC50 (HDAC3): 3.07 nM
IC50 [2]: 290 nM
IC50 (HDAC8): 341 nM
IC50 (HDAC6): 48.5 nM
IC50 range in words for HDACs 1-3 (HDACs 1-3): single digit nM range
IC50 [3]: 220 nM

CCCCCCCC(=O)SCC/C=C/[C@@H]1CC(=O)NCc2cc(ccn2)C2=N[C@@](C)(CS2)C(=O)N[C@@H](C(C)C)C(=O)O1 [compound of formula A]
CC50 (CNS cancer cell lines [4]): 1.38e-05 M
Total Impacted Cell Lines (n), LC50, Colon (colon cancer cell lines [5]): 3
Percent of Cell Lines Impacted (%), LC50, Colon (colon cancer cell lines [5]): 43%
GI50 (NCI-60 cancer cell lines [6]; [13]): 3.29e-08 M
GI50 (NCI-60 cancer cell lines [6]; read-out: GI50 concentrations (M), order of magnitude): 1e-08 M
CC50 (melanoma cell lines [7]): 2.02e-07 M
Total Impacted Cell Lines (n), LC50, CNS (CNS cancer cell lines [8]): 1
Percent of Cell Lines Impacted (%), LC50, CNS (CNS cancer cell lines [8]): 20%
Total Impacted Cell Lines (n), LC50, Melanoma (melanoma cell lines [9]): 3
Percent of Cell Lines Impacted (%), LC50, Melanoma (melanoma cell lines [9]): 38%
Percent of Cell Lines Impacted (%), GI50 (NCI-60 cancer cell lines [10]): 100%
Percent of Cell Lines Impacted (%), LC50 (NCI-60 cancer cell lines [10]): 16%
Percent of Cell Lines Impacted (%), TGI (NCI-60 cancer cell lines [10]): 56%
Total Impacted Cell Lines (n), TGI (NCI-60 cancer cell lines [10]): 32
Average Concentration (M), TGI (NCI-60 cancer cell lines [10]): 8.49e-07 M
CC50 (colon cancer cell lines [11]): 1.48e-06 M
Total Impacted Cell Lines (n), LC50, Renal (renal cancer cell lines): 2
Percent of Cell Lines Impacted (%), LC50, Renal (renal cancer cell lines): 25%

CC(C)[C@@H]1NC(=O)[C@]2(C)CSC(=N2)c2ccnc(c2)CNC(=O)C[C@@H](/C=C/CCS)NC1=O [Compound P12, Peptide Isostere Pyridyl “OUT” Thiol]
IC50 (HDAC3): 14.6 nM
IC50 (HDAC8): 1490 nM
IC50 (HDAC6): 2850 nM
IC50 range in words for HDACs 1-3 (HDACs 1-3): double-digit nM range
IC50 (HDAC2): 20.8 nM
IC50 (HDAC1): 13.2 nM

CCCCCCCC(=O)SCC/C=C/[C@@H]1CC(=O)NCc2nc(cs2)C2=N[C@@](C)(CS2)C(=O)N[C@@H](C(C)C)C(=O)N1 [compound of formula aa]
CC50 (CNS cancer cell lines [4]): 7.17e-06 M
Total Impacted Cell Lines (n), LC50, Colon (colon cancer cell lines [5]): 3
Percent of Cell Lines Impacted (%), LC50, Colon (colon cancer cell lines [5]): 43%
GI50 (NCI-60 cancer cell lines [6]; [13]): 6.56e-07 M
CC50 (melanoma cell lines [7]): 6.52e-06 M
Total Impacted Cell Lines (n), LC50, CNS (CNS cancer cell lines [8]): 2
Percent of Cell Lines Impacted (%), LC50, CNS (CNS cancer cell lines [8]): 33%
Total Impacted Cell Lines (n), LC50, Melanoma (melanoma cell lines [9]): 2
Percent of Cell Lines Impacted (%), LC50, Melanoma (melanoma cell lines [9]): 25%
Percent of Cell Lines Impacted (%), GI50 (NCI-60 cancer cell lines [10]): 100%
Percent of Cell Lines Impacted (%), LC50 (NCI-60 cancer cell lines [10]): 17%
Percent of Cell Lines Impacted (%), TGI (NCI-60 cancer cell lines [10]): 64%
Total Impacted Cell Lines (n), TGI (NCI-60 cancer cell lines [10]): 37
Average Concentration (M), TGI (NCI-60 cancer cell lines [10]): 1.31e-05 M
CC50 (colon cancer cell lines [11]): 9.45e-06 M
Total Impacted Cell Lines (n), LC50, Ovarian [12]: 1
Percent of Cell Lines Impacted (%), LC50, Ovarian ([12]; five-dose): 14%
Total Impacted Cell Lines (n), LC50, Renal (renal cancer cell lines): 2
Percent of Cell Lines Impacted (%), LC50, Renal (renal cancer cell lines): 25%

COC(=O)C[C@@H](/C=C/CCSC(c1ccccc1)(c1ccccc1)c1ccccc1)NC(=O)[C@@H](NC(=O)[C@]1(C)CSC(c2cccc(CNC(=O)OC(C)(C)C)n2)=N1)C(C)C [Trityl Protected Peptide Isostere Pyridyl “IN” Macrocycle]
ring closure, isolated yield [1]: 33%

CC(C)[C@@H]1NC(=O)[C@]2(C)CSC(=N2)c2ccnc(c2)CNC(=O)C[C@@H](/C=C/CCS)OC1=O [Compound P8, Depsipeptide Pyridyl “OUT” Thiol]
IC50 (HDAC3): 2.31 nM
IC50 [2]: 120 nM
IC50 (HDAC8): 102 nM
IC50 (HDAC6): 35.2 nM
IC50 range in words for HDACs 1-3 (HDACs 1-3): single digit nM range
IC50 [3]: 90 nM
IC50 (HDAC2): 4.42 nM
IC50 (HDAC1): 2.2 nM

CC(C)[C@H]1NC(=O)[C@@]2(C)CSC(=N2)c2csc(n2)CNC(=O)C[C@H](/C=C/CCS)OC1=O [Enantiomer (2), (−)-Largazole Thiol]
decrease in potency versus the natural product (human HDACs): three orders of magnitude
